# Assay results as given in patent US8828674B2, “Functional identification of proteins underlying Icrac activity in a cell” (The Queen's Medical Center, priority 2007, dated 2014).
# Tests used:
# CRACM1 = CRACM1 (Homo sapiens, UniProt Q96D31); conditions: without STIM1 overexpression
# Method: (§1) To assess the functional properties of CRACM proteins, all three CRACM species were overexpressed in HEK293 cells. CRAC currents were measured in response to rapid Ca2+ store depletion by 20 μM inositol 1,4,5-trisphosphate (IP3) as well as following passive store depletion by perfusing cells with 20 mM BAPTA, which results in a slower store depletion that relies on Ca2+ leaking from stores. Full length human CRACM1 (accession no. NM_032790) and CRACM1-E106Q were subcloned as described. […] CRACM proteins were over-expressed in HEK293 cells stably expressing STIM1 using lipofectamine 2000 (Invitrogen) and the GFP expressing cells were selected by fluorescence.
# (§2) Patch-clamp experiments were performed in the tight-seal whole-cell configuration at 21-25° C. […] Capacitive currents were determined and corrected before each voltage ramp. Extracting the current amplitude at −80 mV from individual ramp current records assessed the low-resolution temporal development of currents. […] In the experiments of FIG. 2, 10 mM EGTA was used and in FIG. 3, [Ca^2+]i was buffered to defined levels using 20 mM Cs-BAPTA and appropriate concentrations of CaCl2 as calculated with WebMaxC. […]
# CRACM2 = CRACM2 (Homo sapiens, UniProt Q96SN7); conditions: 50 μM 2-APB
# Sequence of CRACM2 (Q96SN7 whole entry): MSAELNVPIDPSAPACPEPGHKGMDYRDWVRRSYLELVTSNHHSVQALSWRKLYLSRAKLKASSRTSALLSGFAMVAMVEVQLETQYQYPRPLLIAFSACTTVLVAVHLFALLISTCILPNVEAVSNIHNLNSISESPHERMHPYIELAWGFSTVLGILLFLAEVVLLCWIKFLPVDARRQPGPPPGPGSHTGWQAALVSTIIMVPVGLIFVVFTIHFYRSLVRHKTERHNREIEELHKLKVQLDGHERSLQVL
# Method: as §1, §2
# CRACM3 [1] = molecular target: T1, CRACM3 (Homo sapiens, UniProt Q9BRQ5)
# Method: as §1, with “described. Full length human CRACM2 (accession no. NM_032831) and CRACM3 (accession no. NM_152288) were amplified from cDNAs (purchased from Origene) using high fidelity Pfu Ultra High Fidelity polymerase (Stratagene) and subcloned into pCAGGS-IRES-GFP vector.” for “described.”
# (§3) Patch-clamp experiments were performed in the tight-seal whole-cell configuration at 21-25° C. High-resolution current recordings were acquired using the EPC-9 (HEKA). Voltage ramps of 50 ms duration spanning a range of −150 to +150 mV were delivered from a holding potential of 0 mV at a rate of 0.5 Hz over a period of 100-300 sec. All voltages were corrected for a liquid junction potential of 10 mV. Currents were filtered at 2.9 kHz and digitized at 100 μs intervals. Capacitive currents were determined and corrected before each voltage ramp. Extracting the current amplitude at −80 mV from individual ramp current records assessed the low-resolution temporal development of currents. Where applicable, statistical errors of averaged data are given as means± S.E.M. with n determinations. Standard external solutions were as follows (in mM): 120 NaCl, 2 MgCl2, 10 CaCl2, 10 TEA-Cl, 10 HEPES, 10 glucose, pH 7.2 with NaOH, 300 mOsm. In some experiments, Na^+-free solutions were applied, where NaCl was replaced equimolarly by tetraethylammonium-chloride (TEA-Cl). For Ca^2+-free external solutions CaCl2 was omitted, but Mg^2+ was retained. The divalent-free external solution (DVF) was based on the standard external solution but in the absence of CaCl2 and MgCl2 and additionally supplemented with 10 mM EDTA. Divalent replacement solutions were based on the standard external solution but with 10 mM CaCl2 replaced by 10 mM BaCl2. […] Standard internal solutions were as follows (in mM): 120 Cs-glutamate, 20 Cs-BAPTA, 3 MgCl2, 10 HEPES, 0.02 IP3, pH 7.2 with CsOH, 300 mOsm. In the experiments of FIG. 2, 10 mM EGTA was used and in FIG. 3, [Ca^2+]i was buffered to defined levels using 20 mM Cs-BAPTA and appropriate concentrations of CaCl2 as calculated with WebMaxC. For passive-depletion experiments, IP3 was omitted from the internal solution. All chemicals were purchased from Sigma-Aldrich Co.
# Normally, CRAC currents are highly Ca^2+-selective and poorly permeable to K^+ or Cs^+, resulting in positive reversal potentials.
# The monovalent versus divalent cation permeation was investigated in ion substitution experiments, where either Ca^2+ was removed from the extracellular solution or Na^+ was replaced by TEA.
# CRACM3 [2] = molecular target: T1, CRACM3; remark: listed apart in the source
# Method: Patch-clamp experiments were performed in the tight-seal whole-cell configuration at 21-25° C. High-resolution current recordings were acquired using the EPC-9 (HEKA). Voltage ramps of 50 ms duration spanning a range of −150 to +150 mV were delivered from a holding potential of 0 mV at a rate of 0.5 Hz over a period of 100-300 sec. All voltages were corrected for a liquid junction potential of 10 mV. Currents were filtered at 2.9 kHz and digitized at 100 μs intervals. Capacitive currents were determined and corrected before each voltage ramp. Extracting the current amplitude at −80 mV from individual ramp current records assessed the low-resolution temporal development of currents. Where applicable, statistical errors of averaged data are given as means± S.E.M. with n determinations. Standard external solutions were as follows (in mM): 120 NaCl, 2 MgCl2, 10 CaCl2, 10 TEA-Cl, 10 HEPES, 10 glucose, pH 7.2 with NaOH, 300 mOsm. In some experiments, Na^+-free solutions were applied, where NaCl was replaced equimolarly by tetraethylammonium-chloride (TEA-Cl). For Ca^2+-free external solutions CaCl2 was omitted, but Mg^2+ was retained. […] In the experiments of FIG. 2, 10 mM EGTA was used and in FIG. 3, [Ca^2+]i was buffered to defined levels using 20 mM Cs-BAPTA and appropriate concentrations of CaCl2 as calculated with WebMaxC. […]
# CRACM1-E106D = CRACM1-E106D (Homo sapiens, UniProt Q96D31, E106D)
# Sequence of CRACM1-E106D (Q96D31 whole entry E106D): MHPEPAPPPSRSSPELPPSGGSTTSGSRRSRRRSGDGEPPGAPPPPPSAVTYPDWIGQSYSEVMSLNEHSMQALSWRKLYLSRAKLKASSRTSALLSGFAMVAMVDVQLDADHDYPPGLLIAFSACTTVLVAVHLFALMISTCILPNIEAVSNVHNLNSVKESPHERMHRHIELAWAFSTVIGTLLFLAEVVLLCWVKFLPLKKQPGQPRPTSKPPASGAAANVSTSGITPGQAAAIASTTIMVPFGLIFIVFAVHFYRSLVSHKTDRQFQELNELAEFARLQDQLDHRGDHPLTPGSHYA
# Method: as §3
# CRACM1-E190A = CRACM1-E190A (Homo sapiens, UniProt Q96D31, E190A)
# Sequence of CRACM1-E190A (Q96D31 whole entry E190A): as the sequence (Q96D31 whole entry E106D) above, with D106E, E190A counted along it
# Method: as §3
# [3] = 50 μM 2-APB, 0 Ca Sodium Ringer
# Sequence of CRACM1 (Q96D31 whole entry): as the sequence (Q96D31 whole entry E106D) above, with D106E counted along it
smiles,measurement,setting,value
"NCCOB(c1ccccc1)c1ccccc1 [2-APB, 2-aminoethoxydiphenyl borate]",Store- and STIM1-independent gating of wild-type CRACM1 by 2-APB,CRACM1,largely resistant
same,Sensitivity of CRACM2 to 2-APB-mediated inhibition (versus CRACM1),CRACM2,significantly less sensitive
same,Change of outward current on 2-APB application in Ca2+-free extracellular solution,CRACM3 [1]; [3],nearly tripled
same,Reduction of average inward current on 2-APB application in Ca2+-free extracellular solution versus Ca2+-containing solutions,CRACM3 [1]; [3],53%
same,Reversal potential with 2-APB in Ca2+-free extracellular solution,"CRACM3 [1]; 50 μM 2-APB, 0 Ca Sodium Ringer, shift from +94 mV",+10 mV
same,Effect of replacing extracellular Na+ with TEA+ on inward or outward currents induced by 2-APB,"CRACM3 [1]; 50 μM 2-APB, 10 mM Ca TEA Ringer",no significant effect
same,"Reversal potential after 2-APB application, internal K+","CRACM3 [1]; 50 μM 2-APB, IP3, K+-based internal solution",29 mV
same,Average 2-APB-mediated current compared to CRACM3 currents without STIM1 overexpression,"CRACM3 [1]; 50 μM 2-APB, STIM1 cells with CRACM3",approximately twice as large
same,Reversal potential with 2-APB in 10Ca/TEA Ringer,"CRACM3 [1]; 50 μM 2-APB, red I/V of FIG. 6G",+30 mV
same,Permeability ratio PCs/PCs in presence of 2-APB,"CRACM3 [1]; Goldman-Hodgkin-Katz analysis, 10Ca/TEA Ringer (red I/V), +30 mV",50
same,Permeability ratio PNs/PCs in presence of 2-APB,"CRACM3 [1]; Goldman-Hodgkin-Katz analysis, Ca2+-free conditions, Erev=+10 mV",1.5
same,Permeability ratio PCa/PNa in presence of 2-APB,"CRACM3 [1]; Goldman-Hodgkin-Katz analysis, normally in excess of 100-fold",33
same,Current with 2-APB administered intracellularly,"CRACM3 [2]; 50 μM 2-APB in pipette solution, [Ca2+]i ~150 nM",no store-operated or 2-APB induced current was elicited
same,Reversal potential of the 2-APB-evoked CRACM3 current,"CRACM3 [2]; 50 μM 2-APB, CRACM3 alone, FIG. 6D",+30 mV
same,Response of CRACM1-E106D expressed alone to 2-APB,"CRACM1-E106D; 50 μM 2-APB, [Ca2+]i 150 nM, no STIM1","rapid increase in inward current, followed by complete block, and a slow reactivation"
same,Reversal potential of the reactivated current after 2-APB,"CRACM1-E106D; CRACM1-E106D alone, +16 mV for the mutant without 2-APB",0 mV
same,Response of CRACM1-E190A co-expressed with STIM1 to 2-APB,CRACM1-E190A; 50 μM 2-APB after IP3-induced CRAC currents fully activated,large facilitation followed by rapid inhibition
same,"Response of CRACM1-E190A expressed alone, without STIM1, to 2-APB","CRACM1-E190A; 50 μM 2-APB, wild-type HEK293, no IP3, [Ca2+]i ~150 nM","large, transient increase in both inward and outward current"
same,Reversal potential of the 2-APB-facilitated current,"CRACM1-E190A; CRACM1-E190A with STIM1, 50 μM 2-APB, +55 mV before 2-APB",+33 mV
